# Laboratory results reported in article PMC7816196, “Antitubercular 2-Pyrazolylpyrimidinones: Structure–Activity Relationship and Mode-of-Action Studies” (Journal of Medicinal Chemistry, 2021).
# Read-outs that look alike come from different tables or passages of the source.
# Experiments:
# [1] = Kinetic aqueous solubility at pH 7.4; type: physicochemical
# Protocol: 3) In vitro ADME - assays
# The kinetic solubility assay was p erfo rmed using a miniaturised shake flask method. 10 mM stock solutions of each of the test compounds were used to prepare calibration standards (10-220 µM) in DMSO. The same 10 mM stock soluti ons were accurately dispensed in duplicat e into 96-well plates and the DMSO dried down (MiVac GeneVac, 90 min, 37 °C). Thereafter, the samples were reconstituted (200 µM) in phosphate buffered saline (pH 7. 4) and shaken (20 hours,25 °C). The solutions were centrifuged, and the supernatant was an alysed by means of HPLC-DAD (Agilent 1200 Rapid Resolution HPLC with a diode array detector). Best fit calibration curves were constructed using the calibration standards, which were used to determine the aqueous samples’ solubility.4
# The metabolic stability assay was performed in dup licate in a 96-well micro t itre plate. The test compounds (0.1 µM) were incubated individually in mouse, rat and pooled human liver microsomes (final protei n concentration of 0.4 m g/mL; XenoTech, Lenexa, KS), suspended in 0.1M phosphate buffer (pH 7.4) for predetermined time points, in the presence and abs ence of the cofactor NADPH (1 mM). Reactions were quenched by adding 300 µL of ice cold acetonitrile containing internal standard (carbamazepine, 0.0236 µg/mL). The samples were centrifuged and test in the supernatant were an alysed by means of LC-MS/MS ((Agilent Rapid Resolution HPLC, AB SCIEX 4500 MS). The rel ative loss of parent compound over time w as monitored and plots (concentration vs. time) were prepared per compound to determine the first order rate constant for compound depletion. This was in turn used to calculate h alf-life, in vitro intrinsic clearance and in vivo hepatic extraction ratio. Metabolite search es were not conducted during the met abolic stability assay.5
# Mtb H37Rv = test: MIC against Mtb H37Rv, Alamar Blue broth microdilution; type: cell-based, Mycobacterium tuberculosis
# in vivo = details: male, C57/BL6, mouse
# [2] = Mouse pharmacokinetics, i.v. and oral
# WT H37Rv = test: microbe, parasite or virus in culture; type: cell-based, M. tuberculosis; details: Mycobacterium tuberculosis
# mmpL3-TetON = test: microbe, parasite or virus in culture; type: cell-based, M. tuberculosis; details: for MIC / MIC50: Mycobacterium tuberculosis
# [3] = phosphate buffered saline, pH 7.4, aqueous (kinetic) solubility at pH 7.4, read-out: Solubility
# [4] = Mycobacterium tuberculosis, H37RV, supplement csv, medium not stated
# [5] = male, C57/BL6, mouse, whole blood, iv, 2 mg/kg
# [6] = male, C57/BL6, mouse, whole blood, po, 20 mg/kg
# [7] = Mycobacterium tuberculosis, H37RV, 168 h
compound,measurement,setting,value
"Cc1cc(Nc2ccc(C(=O)N(C)C)cc2)n(-c2nc(C(F)(F)F)cc(=O)[nH]2)n1 [Compound 43, N,N-Dimethyl-4-((3-Methyl-1-(6-oxo-4-(trifluoromethyl)-1,6-dihydropyrimidin-2-yl)-1H-pyrazol-5-yl)amino)benzamide]",solubility at 20 h,[1]; [3],≥ 200 µM
"Cc1cc(CN(C)C)nn1-c1nc(C(F)(F)F)cc(=O)[nH]1 [Compound 52, 2-(3-((Dimethylamino)methyl)-5-methyl-1H-pyrazol-1-yl)-6-(trifluoromethyl)pyrimidin-4(3H)-one]",solubility at 20 h,[1]; [3],≥ 200 µM
"Cc1cc(Nc2ccncc2)n(-c2nc(C(F)(F)F)cc(=O)[nH]2)n1 [Compound 44, 2-(3-Methyl-5-(pyridin-4-ylamino)-1H-pyrazol-1-yl)-6-(trifluoromethyl)pyrimidin-4(3H)-one]",solubility at 20 h,"[1]; phosphate buffered saline, pH 7.4, supplement csv, pH 7.4, read-out: SolubilitypH 7.4",22 µM
"Cc1cc(C)n(-c2nc(-c3ccc(F)cc3)cc(=O)[nH]2)n1 [Compound 19, 2-(3,5-Dimethyl-1H-pyrazol-1-yl)-6-(4-fluorophenyl)pyrimidin-4(3H)-one]",MIC,Mtb H37Rv; [4],1 µM
"Cc1cc(Nc2ccc(F)cc2)n(-c2nc(C(F)(F)F)cc(=O)[nH]2)n1 [Compound 40, 2-(5-((4-Fluorophenyl)amino)-3-methyl-1H-pyrazol-1-yl)-6-(trifluoromethyl)pyrimidin-4(3H)-one]",half-life,"in vivo; iv, 2 mg/kg",4 h
same,half-life,"in vivo; po, 20 mg/kg",6.1 h
same,AUC(0-inf),[2]; [5],256 µM·h
same,CLint scaled,[2]; [5],34 mL/min/kg
same,Cmax,[2]; [5],33.1 µM
same,Vd,[2]; [5],0.1 L/kg
same,clearance,[2]; [5],0.4 mL/min/kg
same,bioavailability,"[2]; male, C57/BL6, mouse, whole blood, oral, 20 mg/kg",~40%
same,AUC(0-inf),[2]; [6],1090 µM·h
same,Cmax,[2]; [6],104 µM
same,bioavailability,[2]; [6],44%
same,tolerability,"[2]; mouse, i.v. 2 mg/kg or oral 20 mg/kg",well tolerated
same,MIC,WT H37Rv; experiment: Follow-Up,0.51 µM
same,MIC50,WT H37Rv; experiment: Follow-Up,0.4 µM
same,MIC,WT H37Rv; experiment: Initial,0.54 µM
same,MIC50,WT H37Rv; experiment: Initial,0.3 µM
same,change in MIC on transcriptional silencing of mmpL3,mmpL3-TetON,no significant change
same,MIC,mmpL3-TetON; experiment: Follow-Up,0.56 µM
same,MIC50,mmpL3-TetON; experiment: Follow-Up,0.36 µM
same,MIC,mmpL3-TetON; experiment: Initial,0.34 µM
same,MIC50,mmpL3-TetON; experiment: Initial,0.18 µM
"Cc1cc(NCCN(C)C)n(-c2nc(C(F)(F)F)cc(=O)[nH]2)n1 [Compound 36, 2-(5-((2-(Dimethylamino)ethyl)amino)-3-methyl-1H-pyrazol-1-yl)-6-(trifluoromethyl)pyrimidin-4(3H)-one]",solubility at 20 h,[1]; [3],≥ 200 µM
"Cc1cc(C)n(-c2nc(-c3cccnc3)cc(=O)[nH]2)n1 [Compound 21, 2-(3,5-Dimethyl-1H-pyrazol-1-yl)-6-(pyridin-3-yl)pyrimidin-4(3H)-one]",solubility at 20 h,[1]; [3],≥ 200 µM
"CC[C@@H](CO)NCCN[C@@H](CC)CO [Ethambutol, reference compound]",MIC,WT H37Rv; experiment: Follow-Up,3.8 µM
same,MIC50,WT H37Rv; experiment: Follow-Up,1.4 µM
same,MIC,WT H37Rv; experiment: Initial,2.4 µM
same,MIC50,WT H37Rv; experiment: Initial,0.98 µM
same,MIC,mmpL3-TetON; experiment: Follow-Up,4.9 µM
same,MIC50,mmpL3-TetON; experiment: Follow-Up,1.9 µM
same,MIC,mmpL3-TetON; experiment: Initial,1.6 µM
same,MIC50,mmpL3-TetON; experiment: Initial,1.3 µM
"CCc1cc(C)nn1-c1nc(C(F)(F)F)cc(=O)[nH]1 [Compound 30, 2-(5-Ethyl-3-methyl-1H-pyrazol-1-yl)-6-(trifluoromethyl)pyrimidin-4(3H)-one]",solubility at 20 h,[1]; [3],≥ 200 µM
"Cc1cc(NC2CCOCC2)n(-c2nc(C(F)(F)F)cc(=O)[nH]2)n1 [Compound 39, 2-(3-Methyl-5-((tetrahydro-2H-pyran-4-yl)amino)-1H-pyrazol-1-yl)-6-(trifluoromethyl)pyrimidin-4(3H)-one]",MIC,Mtb H37Rv; [7],1.5 to 2 µM
same,MIC,Mtb H37Rv; [4],1 µM
"Cc1cc(NCCO)n(-c2nc(C(F)(F)F)cc(=O)[nH]2)n1 [Compound 37, 2-(5-((2-Hydroxyethyl)amino)-3-methyl-1H-pyrazol-1-yl)-6-(trifluoromethyl)pyrimidin-4(3H)-one]",solubility at 20 h,[1]; [3],≥ 200 µM
"Cc1cc(C)n(-c2nc(C(=O)Nc3ccc(F)cc3)cc(=O)[nH]2)n1 [Compound 26, 2-(3,5-Dimethyl-1H-pyrazol-1-yl)-N-(4-fluorophenyl)-6-oxo-1,6-dihydropyrimidine-4-carboxamide]",solubility at 20 h,[1]; [3],≥ 200 µM
"Cc1cc(Nc2ccc(C#N)cc2)n(-c2nc(C(F)(F)F)cc(=O)[nH]2)n1 [Compound 42, 4-((3-Methyl-1-(6-oxo-4-(trifluoromethyl)-1,6-dihydropyrimidin-2-yl)-1H-pyrazol-5-yl)amino)benzonitrile]",MIC,Mtb H37Rv; [7],9 µM
same,MIC,Mtb H37Rv; [4],9 µM
"Cn1ccnc1-c1nc(-c2ccccc2)cc(=O)[nH]1 [Compound 18, 2-(1-Methyl-1H-imidazole-2-yl)-6-phenylpyrimidin-4(1H)-one]",solubility at 20 h,[1]; [3],≥ 200 µM
"Cc1nn(-c2nc(C(F)(F)F)cc(=O)[nH]2)c(C)c1Br [Compound 48, 2-(4-Bromo-3,5-dimethyl-1H-pyrazol-1-yl)-6-(trifluoromethyl)pyrimidin-4(3H)-one]",solubility at 20 h,[1]; [3],≥ 200 µM
"Cc1cc(O)nc(-n2nc(C)cc2C)n1 [Compound 11, 2-(3,5-Dimethyl-1H-pyrazol-1-yl)-6-methylpyrimidin-4(3H)-one]",loss in activity,Mtb H37Rv; CH3 or CF3 at R1 instead of phenyl,10–15 fold
"Cc1cc(Nc2ccc(F)cc2F)n(-c2nc(C(F)(F)F)cc(=O)[nH]2)n1 [Compound 41, 2-(5-((2,4-Difluorophenyl)amino)-3-methyl-1H-pyrazol-1-yl)-6-(trifluoromethyl)pyrimidin-4(3H)-one]",MIC,Mtb H37Rv; [7],0.2 µM
"COCCNc1cc(C)nn1-c1nc(C(F)(F)F)cc(=O)[nH]1 [Compound 38, 2-(5-((2-Methoxyethyl)amino)-3-methyl-1H-pyrazol-1-yl)-6-(trifluoromethyl)pyrimidin-4(3H)-one]",MIC,Mtb H37Rv; [7],1.5 to 2 µM
same,MIC,WT H37Rv; experiment: Follow-Up,1.5 µM
same,MIC50,WT H37Rv; experiment: Follow-Up,0.87 µM
same,MIC,WT H37Rv; experiment: Initial,1.1 µM
same,MIC50,WT H37Rv; experiment: Initial,0.46 µM
same,change in MIC on transcriptional silencing of mmpL3,mmpL3-TetON,no significant change
same,MIC50,mmpL3-TetON; experiment: Follow-Up,0.78 µM
same,MIC,mmpL3-TetON; experiment: Initial,1.1 µM
same,MIC50,mmpL3-TetON; experiment: Initial,0.47 µM
same,solubility at 20 h,[1]; [3],≥ 200 µM
"Cc1cc(-c2ccccc2)n(-c2nc(C(F)(F)F)cc(=O)[nH]2)n1 [Compound 32, 2-(3-Methyl-5-phenyl-1H-pyrazol-1-yl)-6-(trifluoromethyl)pyrimidin-4(3H)-one]",solubility at 20 h,[1]; [3],≥ 200 µM
"Cc1cc(C)n(-c2nc(-c3ccccc3)cc(=O)n2C)n1 [Compound 4, 2-(3,5-Dimethyl-1H-pyrazol-1-yl)-3-methyl-6-phenylpyrimidin-4(3H)-one]",solubility at 20 h,[1]; [3],≥ 200 µM
"2-(3-Methyl-5-oxo-2,5-dihydro-1H-pyrazol-1-yl)-6-phenylpyrimidin-4(1H)-one [Compound 13]",MIC,Mtb H37Rv,>125 µM
same,MIC,"Mtb H37Rv; supplement csv, medium not stated",>125 µM
same,solubility at 20 h,"[1]; aqueous (kinetic) solubility at pH 7.4, read-out: Solubility",190 µM
"COc1cc(-c2ccccc2)nc(-n2nc(C)cc2C)n1 [Compound 3, 2-(3,5-Dimethyl-1H-pyrazol-1-yl)-4-methoxy-6-phenylpyrimidine]",solubility at 20 h,[1]; [3],≥ 200 µM
"Cc1nn(-c2nc(C(F)(F)F)cc(=O)[nH]2)c(C)c1N1CCOCC1 [Compound 50, 2-(3,5-Dimethyl-4-morpholino-1H-pyrazol-1-yl)-6-(trifluoromethyl)pyrimidin-4(3H)-one]",MIC,Mtb H37Rv; [4],6 µM
"CC(C)=CCC/C(C)=C/CNCCNC1C2CC3CC(C2)CC1C3 (stereo not drawn) [SQ109, reference compound]",MIC,WT H37Rv; experiment: Follow-Up,0.98 µM
same,MIC50,WT H37Rv; experiment: Follow-Up,0.54 µM
same,MIC,WT H37Rv; experiment: Initial,0.99 µM
same,MIC50,WT H37Rv; experiment: Initial,0.39 µM
same,MIC,mmpL3-TetON; experiment: Follow-Up,0.19 µM
same,MIC50,mmpL3-TetON; experiment: Follow-Up,0.1 µM
same,MIC,mmpL3-TetON; experiment: Initial,0.27 µM
same,MIC50,mmpL3-TetON; experiment: Initial,0.071 µM
"CCNc1cc(C)nn1-c1nc(C(F)(F)F)cc(=O)[nH]1 [Compound 34, 2-(5-(Ethylamino)-3-methyl-1H-pyrazol-1-yl)-6-(trifluoromethyl)pyrimidin-4(3H)-one]",MIC,Mtb H37Rv; [4],6 µM
"Cc1cc(Nc2ccc(N3CCOCC3)cn2)n(-c2nc(C(F)(F)F)cc(=O)[nH]2)n1 [Compound 46, 2-(3-Methyl-5-((5-morpholinopyridin-2-yl)amino)-1H-pyrazol-1-yl)-6-(trifluoromethyl)pyrimidin-4(3H)-one]",MIC,Mtb H37Rv; [7],2 µM
same,MIC,Mtb H37Rv; [4],2 µM
"Cc1cc(N)n(-c2nc(C(F)(F)F)cc(=O)[nH]2)n1 [Compound 33, 2-(5-Amino-3-methyl-1H-pyrazol-1-yl)-6-(trifluoromethyl)pyrimidin-4(3H)-one]",solubility at 20 h,[1]; [3],≥ 200 µM
